This note sets out measurements from US20250135006A1, “AMPHIPHILIC TLR7/8 ADJUVANTS AND USES THEREOF” (Pfizer Inc., priority 2023, published 2025).

This data set can be described thus: Lymph node localization of AMP adjuvants in female BALB/c mice (LC-MS). It counts as in vivo. The conditions noted are these: mouse, 2 nmol intramuscular; for concentration at 4 h: 4 h post injection; for concentration at 48 h: 48 h post injection. The procedure:
Test compounds were prepared at a concentration of 40 uM in phosphate-buffered saline (pH 7.4)+0.1% polysorbate 80, and 50 uL (2 nmol) of each was administered by intramuscular injection into the right hind leg muscle (gastrocnemius) of female BALB/c mice. Lymph nodes (popliteal, inguinal) were collected from 5 mice per group at 4 h and 48 h post injection, snap frozen in liquid nitrogen, and stored at −80C until analysis. Blood was also collected via cardiac puncture at 4 h and 48 h post injection and centrifuged in EDTA-coated tubes to yield plasma which was stored at −80C until analysis. AMP adjuvant concentrations in each sample were quantified by liquid chromatography-mass spectrometry (LC-MS).
A standard curve containing the test compound was prepared in control mouse plasma before extraction with protein precipitation. Muscle samples were weighed and diluted in 4× 60:40 Isopropanol (IPA):Water. Lymph node samples were assumed to be 1 mg and were diluted 50× in […] 60:40 IPA:Water. Zirconium beads were added to tissue samples, followed by shaking in a bead beater to yield tissue homogenate. For plasma analysis, 20 ml of test sample or standard was added followed by 120 ml of acetonitrile containing internal standard (Simvastatin at 300 ng/ml). Tissue homogenate was prepared for analysis using a mixed matrix approach where test tissue samples (20 ml) were matrix matched with control plasma, and a plasma standard curve was matrixed matched with control mouse tissue. Internal standard was added as described above. Samples were vortexed for 1 min, then centrifuged at 3000 rpm for 5 min. 50 ml of supernatant was removed and transferred to a clean 96 well block, 150 ml of 0.1% formic acid in water was added, block was vortexed, centrifuged and 15 ml was injected on the LC/MS for analysis.
An initial mobile phase composition of 5% B was ramped to 95% in 2.0 minutes, held at 95% for 0.3 minutes, and then returned to initial 5% B for 0.3 minutes re-equilibration. The total analysis time for each sample was 3 minutes.
Data was collected on an AB Sciex API6500 (QTRAP) mass spectrometer using positive Turbo IonSpray™ electrospray ionization (ESI) and multiple reaction monitoring (MRM) mode. Typical source conditions, heated capillary temperature, gas1, gas2, and curtain gas were set at 600C, 50, 50, and 10 respectively. Transitions for Compound 1, Compound 2, and internal standard Simvastatin were m/z 1129® 923 for Compound 1, m/z 1172® 956 for Compound 2 and m/z 419® 285 for internal standard Simvastatin respectively. Data acquisition and processing was carried out with Analyst software version 1.7.

[1] abbreviates: inguinal lymph node, read-out: concentration in the inguinal lymph node.
The mark [2] stands for this setting: plasma, read-out: concentration in plasma.
Setting [3] is: popliteal lymph node, read-out: concentration in the popliteal lymph node.

Molecules are shown by their SMILES. Read-outs that look alike come from different tables or passages of the source.

Regarding `CCCCc1nc2c(N)nc3cc(CCCN4CCN(C(=O)CCOCCOCCOCCOCCOCCOCCOCCOCCOCCOCCOCCOCCOCCOCCOCCOCCOCCOCCOCCOCCOCCOCCOCCOCCNC(=O)CCOCCOCCOCCOCCNC(=O)CCCOc5c(C)c(C)c6c(c5C)CC[C@@](C)(CCC[C@H](C)CCC[C@H](C)CCCC(C)C)O6)CC4)ccc3c2n1CC(C)(CO)CO` [Compound 2, N-{75-[4-(3-{4-amino-2-butyl-1-[3-hydroxy-2-(hydroxymethyl)-2-methylpropyl]-1H-imidazo[4,5-c]quinolin-7-yl}propyl)piperazin-1-yl]-75-oxo-3,6,9,12,15,18,21,24,27,30,33,36,39,42,45,48,51,54,57,60,63,66,69,72-tetracosaoxapentaheptacont-1-yl}-17-oxo-20-({(2R)-2,5,7,8-tetramethyl-2-[(4R,8R)-4,8,12-trimethyltridecyl]-3,4-dihydro-2H-chromen-6-yl}oxy)-4,7,10,13-tetraoxa-16-azaicosan-1-amide], the concentration at 4 h by setting is: under setting [1], 16600 ± 6920 ng/g; under setting [2], 1100 ± 305 ng/mL; under setting [3], 35300 ± 16800 ng/g. Also, the concentration at 48 h reads like this: under setting [1], 17000 ± 3320 ng/g; under setting [2], less than 25 ng/mL; under setting [3], 23200 ± 7820 ng/g.
